Test results as given in ChEMBL document CHEMBL2028040, “Malaria Box”.

Legend:
Plasmodium falciparum [1] = test: MMV: Inhibition of Plasmodium falciparum 3D7 at 5uM compound concentration.; format: functional
Plasmodium falciparum [2] = test: MMV: Inhibition of Plasmodium falciparum 3D7 (EC50).; format: functional, organism-based
Plasmodium falciparum [3] = test: MMV: Inhibition of Plasmodium falciparum K1 (EC50).; format: functional, organism-based
Trypanosoma cruzi = test: MMV: Inhibition of Trypanosoma cruzi (Tulahuen C4 LacZ) (Chagas in vitro).; format: functional, organism-based
[4] = test system: Trypanosoma brucei brucei; test: MMV: Inhibition of Trypanosoma brucei brucei (Squib 427) (HAT in vitro).; format: functional, organism-based
[5] = test system: Trypanosoma brucei rhodesiense; test: MMV: Inhibition of Trypanosoma brucei rhodesiense (STIB 900) (HAT in vitro).; format: functional, organism-based
Leishmania infantum = test: MMV: Inhibition of Leishmania infantum (MHOM/MA/BE/67) in vitro.; format: functional, organism-based
[6] = MMV: Cytotoxicity against human fibroblasts (MRC-5) cells.; conditions: MRC-5 cells (human fibroblasts)

Compound	EC50 (Plasmodium falciparum [2])	EC50 (Plasmodium falciparum [3])	IC50 (Trypanosoma cruzi)	IC50 [4]	IC50 [5]	IC50 (Leishmania infantum)	inhibition at 5 µM (Plasmodium falciparum [1])	IC50 [6]
CN1CCN(c2ccc(Nc3c4ccccc4nc4ccccc34)cc2)CC1	142 nM	487 nM	1000 nM	1030 nM	311 nM	4060 nM	97%	10900 nM
c1ccc(/C2=N/c3ccccc3/N=C(/c3ccccc3)c3ccccc32)cc1	662 nM	1100 nM	26100 nM	16500 nM	4520 nM	16600 nM	99%	> 32000 nM
Oc1ccc(-c2nc(-c3ccc4oc5ccc(-c6[nH]c(-c7ccc(O)cc7)nc6-c6ccccc6)cc5c4c3)c(-c3ccccc3)[nH]2)cc1	326 nM	285 nM	4910 nM	3380 nM	2750 nM	4000 nM	98%	15200 nM
CN(C)c1ccc(C=Cc2nc(=O)c3ccccc3o2)cc1	51.5 nM	27.2 nM	> 32000 nM	> 32000 nM	3060 nM	> 32000 nM	96%	> 32000 nM
Brc1ccc(Nc2nc3ccccc3nc2Nc2ccc(Br)cc2)cc1	1060 nM	497 nM	3520 nM	4090 nM	1320 nM	4060 nM	98%	5880 nM
Cc1ccc(-c2cc3nc4c(c(O)n3n2)CCCC4)cc1	396 nM	1120 nM	> 32000 nM	15500 nM	3730 nM	> 32000 nM	73%	> 32000 nM
c1ccc2cc3c(Nc4ccc(N5CCOCC5)cc4)ccnc3cc2c1	251 nM	516 nM	1290 nM	332 nM	346 nM	> 32000 nM	97%	> 32000 nM
c1ccc2c(NCCc3c[nH]c4ccccc34)c3ccccc3nc2c1	304 nM	668 nM	1890 nM	1040 nM	850 nM	1190 nM	97%	3970 nM
Cc1ccc(C2CC(C(F)(F)F)n3nc(C(=O)N4CCN(C(c5ccccc5)c5ccccc5)CC4)cc3N2)cc1 (stereo not drawn)	454 nM	1610 nM	16600 nM	16500 nM	4110 nM	16200 nM	98%	> 32000 nM
CC(C)c1ccc(CNCC(O)c2ccccc2)cc1 (stereo not drawn)	1260 nM	456 nM	10600 nM	1000 nM	1010 nM	10200 nM	96%	13000 nM
OC(CNC1CCCC1)Cn1c2ccccc2c2ccccc21 (stereo not drawn)	660 nM	239 nM	14000 nM	1020 nM	1010 nM	5380 nM	97%	18800 nM
CSc1ccccc1C(=O)Nc1nc(-c2ccccn2)cs1	206 nM	562 nM	250 nM	931 nM	272 nM	336 nM	98%	2780 nM
Cc1cccc(N2C(=O)C3C(C2=O)C2(c4ccccc4)C(=O)C3(c3ccccc3)C(c3ccc4c(c3)OCO4)=C2c2ccc3c(c2)OCO3)c1 (stereo not drawn)	304 nM	261 nM	> 32000 nM	> 32000 nM	> 32000 nM	> 32000 nM	94%	> 32000 nM
OC1=C2C(=Nc3ccccc3SC2c2ccc(Br)cc2)c2ccccc21 (stereo not drawn)	567 nM	961 nM	3620 nM	4090 nM	2660 nM	4320 nM	97%	> 32000 nM
Cc1ccc(N2C3c4ccccc4N(S(=O)(=O)c4ccc(C)cc4)C2c2ccccc2N3S(=O)(=O)c2ccc(C)cc2)cc1	24.8 nM	27.6 nM	> 32000 nM	> 32000 nM	16500 nM	16200 nM	97%	> 32000 nM

Now from value to compound, other results behind:

EC50 (Plasmodium falciparum [2])	EC50 (Plasmodium falciparum [3])	IC50 (Trypanosoma cruzi)	IC50 [4]	IC50 [5]	IC50 (Leishmania infantum)	Compound	inhibition at 5 µM (Plasmodium falciparum [1])	IC50 [6]
300 nM	569 nM	3270 nM	970 nM	1000 nM	841 nM	Cc1cc(NCCN2CCCCC2)c2ccc3ccccc3c2n1	99%	16100 nM
378 nM	994 nM	3060 nM	> 32000 nM	> 32000 nM	> 32000 nM	CCc1c(C)c(=N)c2ccccc2n1C	76%	6890 nM
1020 nM	1020 nM	1050 nM	1200 nM	1000 nM	4060 nM	Cc1ccnc(NC(c2cccc(OCc3ccccc3)c2)c2ccc3cccnc3c2O)c1 (stereo not drawn)	97%	2000 nM
196 nM	58.1 nM	> 32000 nM	> 32000 nM	> 32000 nM	> 32000 nM	CCCN(CCC)CC(O)COc1ccccc1C(=O)Nc1ccccc1 (stereo not drawn)	98%	> 32000 nM
684 nM	520 nM	4390 nM	11900 nM	3540 nM	16200 nM	Cc1cc(Nc2ccc(OCc3ccccc3)cc2)nc2cc(O)ccc12	96%	14000 nM
20.2 nM	50.8 nM	> 32000 nM	> 32000 nM	> 32000 nM	> 32000 nM	COc1ccc(NC(=O)C2c3ccccc3C(=O)N(CC(C)C)C2c2cccs2)cc1Cl (stereo not drawn)	100%	> 32000 nM
473 nM	210 nM	6730 nM	931 nM	1000 nM	4000 nM	CC(C)CCNCC(O)Cn1c2ccccc2c2ccccc21 (stereo not drawn)	97%	16200 nM
268 nM	101 nM	> 32000 nM	16600 nM	16200 nM	16200 nM	Cc1cc(C)c2c(c1)OCN(Cc1ccccc1Cl)C2	98%	> 32000 nM
78.2 nM	93.6 nM	15700 nM	16200 nM	4360 nM	21500 nM	COc1cc(OC)c(N(C)C(=O)c2cc3c(s2)-c2ccccc2S(=O)(=O)C3)cc1Cl	100%	> 32000 nM
314 nM	712 nM	> 32000 nM	> 32000 nM	> 32000 nM	> 32000 nM	CCOC(=O)c1cnc2c(C)cccc2c1Nc1ccc(C(C)=O)cc1	94%	> 32000 nM
32.8 nM	39.1 nM	15100 nM	> 32000 nM	9830 nM	> 32000 nM	Cc1cc(NC(=O)C2c3ccccc3C(=O)N(CC(C)C)C2c2cccs2)no1 (stereo not drawn)	100%	30100 nM
697 nM	1140 nM	234 nM	1000 nM	352 nM	1190 nM	CC(C)OCc1cc(CN2CCN(c3cccc(Cl)c3)CC2)c(O)c2ncccc12	98%	1170 nM
407 nM	362 nM	954 nM	1020 nM	972 nM	1590 nM	CCCOCc1cc(CN2CCN(c3cccc(Cl)c3)CC2)c(O)c2ncccc12	97%	1670 nM
118 nM	600 nM	1530 nM	> 32000 nM	> 32000 nM	16200 nM	CCOC(=O)c1ccc2nc(-c3ccccc3)cc(O)c2c1	96%	7580 nM
912 nM	1070 nM	> 32000 nM	16600 nM	16200 nM	> 32000 nM	COc1ccc(OC)c(C2C3=C(CC(C)(C)CC3=O)N(c3ccc(Cl)c(Cl)c3)C3=C2C(=O)CC(C)(C)C3)c1	90%	> 32000 nM
1080 nM	860 nM	4320 nM	851 nM	252 nM	4000 nM	OC(CNCc1ccccc1)Cn1c2ccccc2c2ccccc21 (stereo not drawn)	95%	16100 nM
512 nM	1070 nM	> 32000 nM	> 32000 nM	30900 nM	> 32000 nM	CCOc1c(Br)cc(C2C(C(=O)OC)=CN(C)C=C2C(=O)OC)cc1OC	96%	> 32000 nM
648 nM	1130 nM	4140 nM	3790 nM	1190 nM	1080 nM	CC1CCCCN1CCCNC(=O)c1ccc2c(c1)sc1nc(-c3ccc(F)cc3)cn12 (stereo not drawn)	98%	10400 nM
478 nM	824 nM	16300 nM	10000 nM	4120 nM	25400 nM	COc1ccccc1N1C(=N)SC(=Cc2ccc(OCc3ccccc3F)cc2)C1=O	95%	> 32000 nM
36.7 nM	73.9 nM	> 32000 nM	16100 nM	4320 nM	> 32000 nM	COc1ccc(NC(=O)C2c3ccccc3C(=O)N(CC(C)C)C2c2cccs2)cc1 (stereo not drawn)	100%	> 32000 nM
518 nM	945 nM	13600 nM	15700 nM	13900 nM	> 32000 nM	CCOC(=O)C1=CN(C)C=C(C(=O)OCC)C1c1cc(Br)c(OCC)c(OC)c1	97%	> 32000 nM
